Results taken from publication PMC12354831 (Cell Death Discovery, 2025).
Values joined by “and” are separate entries in the source; they are usually repeats but may differ in a detail not shown here. Equal entries are not always repeated. Where two headings read alike, the source gives them in different places.

Columns and labels:
[1] = tested on: U87-MG cells; assay: CCK-8 IC50 determination in U87-MG cells with or without GLUT3 KD; type: cell-based, human; conditions: GLUT3 KD vs control, CCK-8, 24 h drug treatment
Procedure: (§1) The GBM cell line was seeded into a 96-well plate at a density of 5 × 10^3 cells per well and incubated at 37 °C in a humidified atmosphere containing 5% CO2 overnight. […] Following 24 h of drug treatment, 10 µL of CCK-8 reagent was added to each well, and the cells were incubated for an additional 1 h at 37 °C. The absorbance was then measured at 450 nm using a microplate reader.
(§2) In this study, the experimental groups were designated as Group A (cells treated with temozolomide (TMZ) or capecitabine (CAPE)), the control group as Group B (cells treated with DMSO), and the blank control group as Group C ([…]). The cell viability rate was calculated using the formula: (A-C)/(B-C) × 100%, where A, B, and C represent the absorbance values of Group A, Group B, and Group C, respectively.

[2] = tested on: U251-MG cells; assay: CCK-8 IC50 determination in U251-MG cells with or without GLUT3 OE; type: cell-based, human; conditions: GLUT3 OE vs control, CCK-8, 24 h drug treatment
Procedure: as §1, §2

[3] = biological target: T1, GLUT3 (Homo sapiens, UniProt P11169); assay: 2-NBDG glucose uptake competition assay in GLUT3-OE vs vector control U251-MG cells; type: cell-based; conditions: for reduction in 2-NBDG uptake: GLUT3 OE U251-MG cells, 100 μM 2-NBDG
T1 construct: expressed in transfected cells
T1 sequence (P11169 1-496): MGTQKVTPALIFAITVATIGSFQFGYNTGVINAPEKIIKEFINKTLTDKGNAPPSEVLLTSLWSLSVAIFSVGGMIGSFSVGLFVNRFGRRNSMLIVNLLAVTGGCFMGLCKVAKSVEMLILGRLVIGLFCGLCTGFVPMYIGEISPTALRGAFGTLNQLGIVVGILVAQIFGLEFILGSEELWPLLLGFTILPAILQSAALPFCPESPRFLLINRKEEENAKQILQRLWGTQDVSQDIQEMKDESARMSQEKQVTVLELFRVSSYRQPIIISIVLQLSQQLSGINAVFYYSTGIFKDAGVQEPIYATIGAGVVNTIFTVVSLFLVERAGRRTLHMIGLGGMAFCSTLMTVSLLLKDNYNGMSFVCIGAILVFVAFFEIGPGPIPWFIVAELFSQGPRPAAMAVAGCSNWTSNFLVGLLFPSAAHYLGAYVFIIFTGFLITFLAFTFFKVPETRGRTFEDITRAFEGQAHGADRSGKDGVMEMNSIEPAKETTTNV
Procedure: GBM cells were seeded into 96-well plates at a density of 4 × 10^4 cells per well and allowed to adhere for 24 h. After 6–12 h, the culture medium (containing 10% fetal bovine serum, FBS) was removed, and the cells were incubated in 100 µL of glucose-free DMEM medium for 1 h at 37 °C in a humidified atmosphere containing 5% CO2. The glucose-free medium was then replaced with 100 µL of DMEM containing 100 µM 2-NBDG, and the cells were incubated for an additional 30 min at 37 °C. Following incubation, the cells were washed three times with cold PBS to remove unincorporated 2-NBDG. The fluorescence intensity was immediately measured using a Synergy™ H1 automatic microplate reader with excitation and emission wavelengths set at 485 nm and 528 nm, respectively.
After 30 min of incubation at 37 °C, the cells were washed three times with cold PBS, and the fluorescence intensity was measured as described above.

[4] = biological target: T1, GLUT3; assay: Microscale thermophoresis (MST) binding assay, GLUT3-GFP in cell lysates
Procedure: (§3) Data from three independent measurements were analyzed using MO. Affinity Analysis software (version 2.1.3, NanoTemper Technologies).

[5] = biological target: GLUT3 mutants; assay: MST binding assay, GLUT3 mutants taken together vs WT; parameters: species or system human
Procedure: as §3

[6] = tested on: U251-MG cell-derived xenograft; assay: TMZ and CAPE levels in nude mouse xenograft tumors by LC-MS/MS; type: in vivo, nude mice (BALB/c-nu); conditions: nude mice, TMZ 40 mg/kg or CAPE 20 mg/kg every 3 days; for drug level in GLUT3-overexpressing tumors relative to controls: fasting groups (24 h fast before each dose); for drug concentration in GLUT3 overexpressing tumors relative to controls: regular diet
Procedure: TMZ and CAPE levels in tumors from nude mice were measured using LC-MS/MS. Tumor tissues were excised from the mice and homogenized. The homogenized samples were then centrifuged at maximum speed (~14,000 × g) at 4 °C for 10 min. The supernatant was collected and transferred to a new centrifuge tube.
For LC-MS/MS analysis, the supernatants were diluted to an appropriate concentration. A total of 100 µL of each sample was mixed with 100 µL of acetonitrile (or standard reagent) and 300 µL of internal standard solution (^2H3-TMZ 100 ng/mL and ^2H11-CAPE 20 ng/mL dissolved in acetonitrile). […] To ensure the stability and repeatability of the instrument analysis, QC samples were prepared and analyzed alongside the experimental samples. QC samples were inserted regularly and analyzed every 6–12 samples. Each experiment was repeated 6 times.
LC-MS/MS analyses were performed using an HPLC system (Shimadzu, LC-20A) coupled to a SCIEX Triple Quad™ 7500 mass spectrometer. The samples were separated on a Syncronis HILIC column (2.1 × 100 mm, 1.7 µm; Thermo Scientific). The mobile phases consisted of: Mobile phase A (0.1% formic acid and 2.5 mM ammonium acetate in water) and Mobile phase B (0.1% formic acid and 2.5 mM ammonium acetate in acetonitrile). Gradient elution was employed, with the flow rates and gradient conditions detailed in Table S4.
The mass spectrometry conditions were as follows: Ion source: electrospray ionization (ESI); Detection mode: positive ion mode; Scanning method: multiple reaction monitoring (MRM); Spray voltage (IS): 5500 V; Ion source temperature (TEM): 555 °C; Gas curtain pressure (CUR): 25 psi; Collision activation dissociation (CAD): MEDIUM; Nebulizer gas pressure (GS1): 55 psi; Auxiliary gas pressure (GS2): 55 psi.
All animal studies were approved and supervised by the Ethics Committee for Animal Use and Care at Peking University. Nude mice (BALB/c-nu) were purchased and maintained as previously described. For the establishment of xenograft tumor models, 1 × 10^6 U251-MG cells (either negative vector control or overexpressing GLUT3) were injected into the bilateral axillary fossae of 4-week-old nude mice. After 7 days, when palpable tumors had formed, the mice were randomly divided into six experimental groups (n = 7 per group), and treatment was initiated immediately.

[7] = across the tested GBM cell lines (U343-MG, U251-MG), read-out: Kd values

Structure (SMILES) | fold increase of IC50 on GLUT3 knockdown [1] [fold] | reduction of IC50 in GLUT3 overexpressing cells compared to control cells [2] [%] | reduction in 2-NBDG uptake ([3]; 1 μM drug) [%] | reduction in 2-NBDG uptake ([3]; 10 μM drug) [%] | reduction in 2-NBDG uptake ([3]; 100 μM drug) [%] | Kd ([4]; U251-MG lysate, GLUT3-GFP, pH 6.8, read-out: Kd) [µM] | Kd [4, 7] | Kd increase vs WT ([5]; seven mutants) [fold] | drug level in GLUT3-overexpressing tumors relative to controls [6] [fold] | drug concentration in GLUT3 overexpressing tumors relative to controls [6] | effect on glucose (2-NBDG) uptake in control cells ([3]; vector control U251-MG cells, until concentration reached 100 μM) | Kd increase vs WT ([5]; mutants T28A, S71A, Q281A, N286A, W386A, and G417A) [fold]
CCCCCOC(=O)Nc1nc(=O)n([C@@H]2O[C@H](C)[C@@H](O)[C@H]2O)cc1F [CAPE, capecitabine] | 56.5 | 94.4 | 39.4 | 51.5 | 69.3 | 1.8 ± 1.1 | 1 to 3 µM and 0.9 to 3.5 µM | > 1000 | 3.54 | 1.52 fold |  | 
Cn1nnc2c(C(N)=O)ncn2c1=O [TMZ] | 10.6 | 97.7 | 36.8 | 47.2 | 70.1 |  | 0.3 to 0.7 µM |  | 1.34 | ~ 1.95 fold | minimally affected | > 1000
